Reference: patent US20240360151A1 (SANOFI, priority 2023, published 2024)
pIC50: −log10 of the molar value.

Columns and labels:
[1] = target: T1, NLRP3 inflammasome (Homo sapiens, UniProt Q96P20); test: IL-1β secretion assay (NLRP3 IC50) in LPS-primed, nigericin-activated THP-1 cells, HTRF; format: cell-based; settings: monocytic THP-1 cells; LPS 10 ng/mL 3 h priming, then compound + nigericin 10 μM 2 h; relative IC50, 10 concentrations, geometric mean
T1 construct: endogenous in cells; host or cells: THP-1 monocytic cells
How it was run: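 THP-1 cells primed with LPS 10 ng/mL for 3 h at 37° C., then compound (10-point 1:3 dilution, 0.1% DMSO) added with 10 μM nigericin for 2 h. Supernatant IL-1β measured by HTRF; relative IC50 from a 4-parameter logistic fit, reported as geometric mean.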

[2] = tested on: NF-kB pathway (TNF-α secretion by THP-1 cells); test: TNF-α secretion assay in LPS-stimulated THP-1 cells, Lumit immunoassay; format: cell-based, human; settings: Homo sapiens, THP-1, 3 h, monocytic THP-1 cells, LPS 10 ng/mL, relative IC50, 10 concentrations, geometric mean
How it was run: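 THP-1 monocytes in RPMI with 5% FBS were treated with compound, then stimulated with 10 ng/mL LPS for 3 h. Secreted TNF-α was measured in-plate by Lumit immunoassay. Relative IC50 came from 10-concentration curves fitted with a 4-parameter logistic model, reported as geometric mean.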

T1 sequence (Q96P20 whole entry): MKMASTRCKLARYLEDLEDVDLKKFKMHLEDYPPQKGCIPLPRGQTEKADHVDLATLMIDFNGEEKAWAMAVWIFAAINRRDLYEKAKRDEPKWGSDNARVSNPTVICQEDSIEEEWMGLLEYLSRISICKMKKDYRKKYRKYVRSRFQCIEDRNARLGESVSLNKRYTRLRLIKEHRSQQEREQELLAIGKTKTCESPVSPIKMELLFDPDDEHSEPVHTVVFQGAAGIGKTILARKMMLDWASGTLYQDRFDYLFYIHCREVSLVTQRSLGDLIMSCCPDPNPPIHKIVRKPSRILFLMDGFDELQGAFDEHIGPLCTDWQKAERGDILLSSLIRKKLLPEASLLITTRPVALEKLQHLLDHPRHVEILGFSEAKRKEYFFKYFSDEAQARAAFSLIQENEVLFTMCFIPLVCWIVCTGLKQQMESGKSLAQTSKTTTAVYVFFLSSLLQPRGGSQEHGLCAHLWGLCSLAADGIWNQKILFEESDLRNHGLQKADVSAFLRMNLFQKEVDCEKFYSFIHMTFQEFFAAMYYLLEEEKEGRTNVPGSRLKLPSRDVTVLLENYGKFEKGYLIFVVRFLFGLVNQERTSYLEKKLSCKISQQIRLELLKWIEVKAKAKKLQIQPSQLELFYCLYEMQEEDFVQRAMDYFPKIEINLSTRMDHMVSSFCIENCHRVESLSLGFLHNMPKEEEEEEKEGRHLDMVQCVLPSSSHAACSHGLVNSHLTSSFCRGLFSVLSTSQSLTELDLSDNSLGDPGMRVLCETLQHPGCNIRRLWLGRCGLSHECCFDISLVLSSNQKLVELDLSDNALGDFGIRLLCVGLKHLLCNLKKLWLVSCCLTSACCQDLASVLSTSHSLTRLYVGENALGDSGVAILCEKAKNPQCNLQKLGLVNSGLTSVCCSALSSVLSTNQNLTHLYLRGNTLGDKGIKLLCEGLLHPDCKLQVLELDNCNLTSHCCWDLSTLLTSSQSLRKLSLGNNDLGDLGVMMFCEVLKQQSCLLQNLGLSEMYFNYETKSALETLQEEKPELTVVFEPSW

pIC50 [1]	pIC50 [2]	SMILES
7.12	< 5.00	Cc1cc(C)c(-c2ccc(N3C[C@H](CO)O[C@@H](CO)C3)nn2)c(O)c1 [Example 201, 2-[6-[(2R,6R)-2,6-bis(hydroxymethyl)morpholin-4-yl]pyridazin-3-yl]-3,5-dimethyl-phenol]
6.48	5.00	Oc1cc(Cl)cc(Cl)c1-c1ccc(N2CCSCC2)nn1 [Example 203, 3,5-dichloro-2-(6-thiomorpholinopyridazin-3-yl)phenol]
7.27	< 5.00	Cc1cc(C2CC2)cc(O)c1-c1ccc(N2CCO[C@H](CO)C2)nn1 [Example 204, 5-cyclopropyl-2-[6-[(2S)-2-(hydroxymethyl)morpholin-4-yl]pyridazin-3-yl]-3-methyl-phenol]
6.49	< 5.00	Cc1cc(C)c(-c2ccc(N3C[C@H]4COC[C@H]4C3)nn2)c(O)c1 [Example 206, 2-[6-[(3aS,6aR)-1,3,3a,4,6,6a-hexahydrofuro[3,4-c]pyrrol-5-yl]pyridazin-3-yl]-3,5-dimethyl-phenol]
7.47	< 5.00	CC(=O)NC[C@@H]1CCCN(c2ccc(-c3c(C)cc(Cl)cc3O)nn2)C1 [Example 211, N-[[(3S)-1-[6-(4-chloro-2-hydroxy-6-methyl-phenyl)pyridazin-3-yl]-3-piperidyl]methyl]acetamide]
7.41	< 5.00	CC(=O)NC[C@H]1CCCN(c2ccc(-c3c(C)cc(Cl)cc3O)nn2)C1 [Example 212, N-[[(3R)-1-[6-(4-chloro-2-hydroxy-6-methyl-phenyl)pyridazin-3-yl]-3-piperidyl]methyl]acetamide]
6.89	< 5.00	CC(=O)NC[C@@H]1CN(c2ccc(-c3c(C)cc(C(F)(F)F)cc3O)nn2)CCO1 [Example 216, N-[[(2R)-4-[6-[2-hydroxy-6-methyl-4-(trifluoromethyl)phenyl]pyridazin-3-yl]morpholin-2-yl]methyl]acetamide]
6.90	< 5.00	Cc1cc(C)c(-c2ccc(N3CCCc4ccc(O)cc43)nn2)c(O)c1 [Example 217, 1-[6-(2-hydroxy-4,6-dimethyl-phenyl)pyridazin-3-yl]-3,4-dihydro-2H-quinolin-7-ol]
6.99	< 5.00	Cc1cc(C)c(-c2ccc(N3CCO[C@H](CF)C3)nn2)c(O)c1 [Example 219, 2-[6-[(2S)-2-(fluoromethyl)morpholin-4-yl]pyridazin-3-yl]-3,5-dimethyl-phenol]
6.97	< 5.00	Cc1cc(C)c(-c2ccc(N3CCO[C@@H](CF)C3)nn2)c(O)c1 [Example 220, 2-[6-[(2R)-2-(fluoromethyl)morpholin-4-yl]pyridazin-3-yl]-3,5-dimethyl-phenol]
6.25	5.04	Cc1cc(C)c(-c2ccc(N3CCCc4cc(O)ccc43)nn2)c(O)c1 [Example 230, 1-[6-(2-hydroxy-4,6-dimethyl-phenyl)pyridazin-3-yl]-3,4-dihydro-2H-quinolin-6-ol]
6.66	< 5.00	Cc1cc(C)c(-c2ccc(N3CCCc4cccc(O)c43)nn2)c(O)c1 [Example 231, 1-[6-(2-hydroxy-4,6-dimethyl-phenyl)pyridazin-3-yl]-3,4-dihydro-2H-quinolin-8-ol]
6.30	5.12	Cc1cc(C)c(-c2ccc(N3CCCc4c(O)cccc43)nn2)c(O)c1 [Example 232, 1-[6-(2-hydroxy-4,6-dimethyl-phenyl)pyridazin-3-yl]-3,4-dihydro-2H-quinolin-5-ol]
7.15	5.15	Cc1cc(C)c(-c2ccc(N3CC(CO)CCC3=O)nn2)c(O)c1 (centres unmarked) [Example 235, 1-[6-(2-hydroxy-4,6-dimethyl-phenyl)pyridazin-3-yl]-5-(hydroxymethyl) piperidin-2-one]
6.26	5.02	Cc1cc(C)c(-c2ccc(N3CCc4cc(O)ccc43)nn2)c(O)c1 [Example 236, 1-[6-(2-hydroxy-4,6-dimethyl-phenyl)pyridazin-3-yl]indolin-5-ol]
6.70	< 5.00	O=C1NCCCN1c1ccc(-c2c(O)cc(Cl)cc2Cl)nn1 [Example 239, 1-[6-(2,4-dichloro-6-hydroxy-phenyl)pyridazin-3-yl]hexahydropyrimidin-2-one]
6.38	< 5.00	Cc1cc(C)c(-c2ccc(N3CCc4c(O)cccc43)nn2)c(O)c1 [Example 240, 1-[6-(2-hydroxy-4,6-dimethyl-phenyl)pyridazin-3-yl]indolin-4-ol]

pIC50 [1]	pIC50 [2]	SMILES
6.60	< 5.00	Cc1cc(C)c(-c2ccc(N3CCc4c(CO)cccc43)nn2)c(O)c1 [Example 241, 2-[6-[4-(hydroxymethyl)indolin-1-yl]pyridazin-3-yl]-3,5-dimethyl-phenol]
7.19	< 5.00	CCc1cc(C)c(-c2ccc(N3CCO[C@H](CO)C3)nn2)c(O)c1 [Example 245, 5-ethyl-2-[6-[(2S)-2-(hydroxymethyl)morpholin-4-yl]pyridazin-3-yl]-3-methylphenol]
7.92	< 5.00	CCc1cc(C)cc(O)c1-c1ccc(N2CCO[C@H](CO)C2)nn1 [Example 246, 3-ethyl-2-[6-[(2S)-2-(hydroxymethyl)morpholin-4-yl]pyridazin-3-yl]-5-methylphenol]
6.77	< 5.00	OC[C@@H]1CN(c2cc(C(F)F)c(-c3ccc(C(F)(F)F)cc3O)nn2)CCO1 [Example 247, 2-[4-(difluoromethyl)-6-[(2S)-2-(hydroxymethyl)morpholin-4-yl]pyridazin-3-yl]-5-(trifluoromethyl)phenol]
7.09	< 5.00	Cc1cc(C(F)(F)F)cc(O)c1-c1nnc(N2CCO[C@H](CO)C2)cc1C(F)F [Example 248, 2-[4-(difluoromethyl)-6-[(2S)-2-(hydroxymethyl)morpholin-4-yl]pyridazin-3-yl]-3-methyl-5-(trifluoromethyl)phenol]
6.82	< 5.00	Cc1cc(Cl)cc(O)c1-c1nnc(N2CCO[C@H](CO)C2)cc1C(F)F [Example 249, 5-chloro-2-[4-(difluoromethyl)-6-[(2S)-2-(hydroxymethyl)morpholin-4-yl]pyridazin-3-yl]-3-methyl-phenol]
6.60	< 5.00	Cc1cc(C(F)(F)F)cc(O)c1-c1ccc(N2C[C@@H](N)CC2=O)nn1 [Example 250, (4S)-4-amino-1-[6-[2-hydroxy-6-methyl-4-(trifluoromethyl)phenyl]pyridazin-3-yl]pyrrolidin-2-one]
6.34	5.00	Cc1cc(C)c(-c2ccc(N3CCc4ccc(O)cc43)nn2)c(O)c1 [Example 254, 1-[6-(2-hydroxy-4,6-dimethyl-phenyl)pyridazin-3-yl]indolin-6-ol]
7.52	< 5.00	Cc1cc(C(F)(F)F)cc(O)c1-c1ccc(N2CCO[C@H](C)C2)nn1 [Example 258, 3-methyl-2-[6-[(2R)-2-methylmorpholin-4-yl]pyridazin-3-yl]-5-(trifluoromethyl)phenol]
7.17	< 5.00	Cc1cc(C(F)(F)F)cc(O)c1-c1ccc(N2CCO[C@@H](C)C2)nn1 [Example 259, 3-methyl-2-[6-[(2S)-2-methylmorpholin-4-yl]pyridazin-3-yl]-5-(trifluoromethyl)phenol]
7.14	< 5.00	Cc1cc(C(F)(F)F)cc(O)c1-c1ccc(N2CCO[C@@H](CO)C2)nn1 [Example 266, 2-[6-[(2R)-2-(hydroxymethyl)morpholin-4-yl]pyridazin-3-yl]-3-methyl-5-(trifluoromethyl)phenol]
6.73	< 5.00	CC(=O)NC[C@@H]1CN(c2ccc(-c3c(C)cc(Cl)cc3O)nn2)CCO1 [Example 267, N-[[(2R)-4-[6-(4-chloro-2-hydroxy-6-methyl-phenyl)pyridazin-3-yl]morpholin-2-yl]methyl]acetamide]
6.58	< 5.00	CN1CC[C@@H]2OCCN(c3cc(C(F)F)c(-c4ccc(C(F)(F)F)cc4O)nn3)[C@@H]2C1 [Example 268, 2-[6-[(4aR,8aS)-6-methyl-3,4a,5,7,8,8a-hexahydro-2H-pyrido[4,3-b][1,4]oxazin-4-yl]-4-(difluoromethyl)pyridazin-3-yl]-5-(trifluoromethyl)phenol]
5.63	5.18	Cc1cc(C)c(-c2ccc(N3CCCc4ccccc43)nn2)c(O)c1 [Example 272, 2-[6-(3,4-dihydro-2H-quinolin-1-yl)pyridazin-3-yl]-3,5-dimethyl-phenol]
6.34	< 5.00	Cc1cc(C(F)(F)F)cc(O)c1-c1ccc(N2CCCC(CO)C2=O)nn1 (centres unmarked) [Example 273, 3-(hydroxymethyl)-1-[6-[2-hydroxy-6-methyl-4-(trifluoromethyl)phenyl]pyridazin-3-yl]piperidin-2-one]
6.77	< 5.00	Cc1cc(C(C)C)cc(O)c1-c1ccc(N2CCO[C@H](CO)C2)nn1 [Example 274, 2-[6-[(2S)-2-(hydroxymethyl)morpholin-4-yl]pyridazin-3-yl]-5-isopropyl-3-methyl-phenol]
6.90	< 5.00	CC(=O)NC[C@H]1CN(c2ccc(-c3c(C)cc(C(F)(F)F)cc3O)nn2)CCO1 [Example 275, N-[[(2S)-4-[6-[2-hydroxy-6-methyl-4-(trifluoromethyl)phenyl]pyridazin-3-yl]morpholin-2-yl]methyl]acetamide]
